Laboratory results reported in patent US8722665B2, “Cinnamido-pyrrolo[2,1-C][1,4]benzodiazepines as potential anticancer agents and process for the preparation thereof” (Council of Scientific & Industrial Research, priority 2008, dated 2014).

Legend:
Experiment in all cases: In vitro cytotoxicity (SRB)
Assay type in all cases: cell-based, human
SNB-75 = SNB-75 (CNS); 48 h continuous drug exposure
Protocol: (§1) The compounds were evaluated for in vitro anticancer activity against sixty human tumour cells derived from nine cancer types (leukemia, non-small-cell lung, colon, CNS, melanoma, ovarian, prostate, and breast cancer) as shown in Table 1a. For each compound, dose response curves for each cell line were measured at a minimum of five concentrations at 10 fold dilutions. A protocol of 48 h continuous drug exposure was used and a sulforhodamine B (SRB) protein assay was used to estimate cell viability or growth. The concentration causing 50% cell growth inhibition (GI50), total cell growth inhibition (TGI 0% growth) and 50% cell death (LC50, −50% growth) compared with the control was calculated. The Log10 GI50 (concentration in mol/L causing 50% growth inhibition) values for Cinnamido-pyrrolo[2,1-c][1,4]benzodiazepine (8b) is listed in Table 2.

MALME-3M = MALME-3M (Melanoma); 48 h continuous drug exposure
Protocol: as §1

BT-549 = BT-549 (Breast); 48 h continuous drug exposure
Protocol: as §1

HCT-15 = HCT-15 (Colon); 48 h continuous drug exposure
Protocol: as §1

MDA-MB-231/ATCC = MDA-MB-231/ATCC (Breast); 48 h continuous drug exposure
Protocol: as §1

UACC-62 = UACC-62 (Melanoma); 48 h continuous drug exposure
Protocol: as §1

HT29 = HT29 (Colon); 48 h continuous drug exposure
Protocol: as §1

NCI-H226 = NCI-H226 (Non-small cell lung); 48 h continuous drug exposure
Protocol: as §1

NCI-H522 = NCI-H522 (Non-small cell lung); 48 h continuous drug exposure
Protocol: as §1

SF-295 = SF-295 (CNS); 48 h continuous drug exposure
Protocol: as §1

A498 = A498 (Renal); 48 h continuous drug exposure
Protocol: as §1

OVCAR-4 = OVCAR-4 (Ovarian); 48 h continuous drug exposure
Protocol: as §1

MDA-MB-435 = MDA-MB-435 (Breast); 48 h continuous drug exposure
Protocol: as §1

T-47D = T-47D (Breast); 48 h continuous drug exposure
Protocol: as §1

SF-268 = SF-268 (CNS); 48 h continuous drug exposure
Protocol: as §1

UO-31 = UO-31 (Renal); 48 h continuous drug exposure
Protocol: as §1

786-0 = 786-0 (Renal); 48 h continuous drug exposure
Protocol: as §1

DU-145 = DU-145 (Prostate); 48 h continuous drug exposure
Protocol: as §1

SR = SR (Leukemia); 48 h continuous drug exposure
Protocol: as §1

SN12C = SN12C (Renal); 48 h continuous drug exposure
Protocol: as §1

EKVX = EKVX (Non-small cell lung); 48 h continuous drug exposure
Protocol: as §1

HOP-92 = conditions: 48 h continuous drug exposure
Protocol: as §1

SW-620 = SW-620 (Colon); 48 h continuous drug exposure
Protocol: as §1

M14 = M14 (Melanoma); 48 h continuous drug exposure
Protocol: as §1

UACC-257 = UACC-257 (Melanoma); 48 h continuous drug exposure
Protocol: as §1

NCI-H322M = NCI-H322M (Non-small cell lung); 48 h continuous drug exposure
Protocol: as §1

IGROV1 = IGROV1 (Ovarian); 48 h continuous drug exposure
Protocol: as §1

OVCAR-3 = OVCAR-3 (Ovarian); 48 h continuous drug exposure
Protocol: as §1

HS 578T = HS 578T (Breast); 48 h continuous drug exposure
Protocol: as §1

MCF7 = MCF7 (Breast); 48 h continuous drug exposure
Protocol: as §1

K-562 = K-562 (Leukemia); 48 h continuous drug exposure
Protocol: as §1

HCT-116 = HCT-116 (Colon); 48 h continuous drug exposure
Protocol: as §1

A549/ATCC = A549/ATCC (Non-small cell lung); 48 h continuous drug exposure
Protocol: as §1

HCC-2998 = HCC-2998 (Colon); 48 h continuous drug exposure
Protocol: as §1

For `COc1cc(/C=C/C(=O)N2CCN(C(=O)c3cc(OC)c(OC)c(OC)c3)CC2)ccc1OCCCOc1cc2c(cc1OC)C(=O)N1CCC[C@H]1C=N2` [8b, 7-methoxy-8-{3-(2-methoxy-4-(E)-3-oxo-3-[4-(3,4,5-trimethoxybenzoyl)piperazino]-1-propenylphenoxy)propoxy}-(11aS)-2,3,5,11^a-tetrahydro-5H-pyrrolo[2,1-c][1,4]benzo-diazepine-5-one], the GI50 (SNB-75) was 260 nM, the GI50 (MALME-3M) was 200 nM and the GI50 (BT-549) was 130 nM. For the same molecule, the GI50 (HCT-15) was 3390 nM, the GI50 (MDA-MB-231/ATCC) was 230 nM and the GI50 (UACC-62) was 170 nM. For the same molecule, the GI50 (HT29) was 400 nM, the GI50 (NCI-H226) was 250 nM and the GI50 (NCI-H522) was 660 nM. It also gave a GI50 (SF-295) of 10 nM, a GI50 (A498) of 210 nM and a GI50 (OVCAR-4) of 2200 nM. For the same molecule, the GI50 (MDA-MB-435) was 170 nM, the GI50 (T-47D) was 150 nM and the GI50 (SF-268) was 320 nM. The GI50 (UO-31) was 1150 nM, the GI50 (786-0) was 490 nM and the GI50 (DU-145) was 360 nM. For the same molecule, the GI50 (SR) was 20 nM, the GI50 (SN12C) was 330 nM and the GI50 (EKVX) was 860 nM. For the same molecule, the GI50 (HOP-92; HOP-92, first line so named (Non-small cell lung)) was 320 nM, the GI50 (HOP-92; HOP-92, second line so named (Non-small cell lung)) was 170 nM and the GI50 (SW-620) was 190 nM. It also gave a GI50 (M14) of 370 nM, a GI50 (UACC-257) of 270 nM and a GI50 (NCI-H322M) of 3070 nM. The GI50 (IGROV1) was 270 nM, the GI50 (OVCAR-3) was 290 nM and the GI50 (HS 578T) was 310 nM. It also gave a GI50 (MCF7) of 130 nM, a GI50 (K-562) of 150 nM and a GI50 (HCT-116) of 200 nM. The GI50 (A549/ATCC) was 480 nM and the GI50 (HCC-2998) was 360 nM.
